Among the data in patent US10336702B2, “Pharmaceutically active compounds” (BERGENBIO ASA, priority 2015, dated 2019) are IC50 values, retold here.

What is called IC50 is the concentration needed to halve the response being measured.

For one assay, the target named is T1, p-Akt3 in WM115 cells (Homo sapiens, UniProt Q9Y243).
T1 construct: SureFire assays to detect cellular p-Akt1, p-Akt2 and p-Akt3 levels in WM115 cells (Akt2/3) and LNCaP cells (Akt1); endogenous in cells; host or cells: WM115 (ECACC 91061232), insulin-stimulated
T1 sequence (Q9Y243 whole entry): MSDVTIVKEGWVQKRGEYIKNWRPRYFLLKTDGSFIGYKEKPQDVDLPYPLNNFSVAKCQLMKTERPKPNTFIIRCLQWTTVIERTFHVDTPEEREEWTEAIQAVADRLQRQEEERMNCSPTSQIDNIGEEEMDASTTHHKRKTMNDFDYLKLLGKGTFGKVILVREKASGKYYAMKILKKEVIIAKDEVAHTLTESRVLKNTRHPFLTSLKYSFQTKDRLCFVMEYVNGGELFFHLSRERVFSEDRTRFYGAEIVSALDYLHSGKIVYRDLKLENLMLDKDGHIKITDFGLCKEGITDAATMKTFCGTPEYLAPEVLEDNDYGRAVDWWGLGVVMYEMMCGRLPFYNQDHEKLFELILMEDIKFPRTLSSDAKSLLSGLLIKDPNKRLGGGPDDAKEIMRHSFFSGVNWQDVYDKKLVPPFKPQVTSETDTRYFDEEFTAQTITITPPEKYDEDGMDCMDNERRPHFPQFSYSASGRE
The assay is described as follows: Phospho-Akt cellular SureFire assay, p-Akt3 in WM115 cells. The settings on record: insulin stimulated, read-out: Biological Assay 2 IC50 (nM) Akt3 WM115. In kind it is cell-based. In outline:
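pThr308-Akt3 in lysates was quantified by bead-proximity SureFire detection, pairing a phospho-specific antibody with a total Akt3 antibody. Before lysis, WM115 cells in 0.1% FBS medium were treated for 15 min at 37 °C with compound (final DMSO 0.3%), following a 10 min stimulation with 100 nM insulin. IC50 was obtained by 4-parameter fitting.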

A further assay concerns the target T2, Akt1 (Homo sapiens, UniProt P31749).
T2 construct: unspecified tag, removed (detagged) (cleaved yes); purchased SignalChem and Proteros (Akt1); Merck Millipore (PDK1) 14-452 (PDK1); none given for Akt1
The assay is described as follows: Akt activation assay (PDK1-mediated activation, LANCE Ultra crosstide TR-FRET), Akt1. In kind it is biochemical. The settings on record: read-out: Biological Assay 1 IC50 (nM) Akt1. The method, boiled down:
(§1)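 TR-FRET read-out (665/615 nm ratio) after Eu-anti-phospho-crosstide antibody, 1 h. Reaction: compound preincubated with Akt isoform, then 5 nM PDK1, lipid vesicles with 0.55 μM PtdIns(3,4,5)P3, 100 μM ATP, 100 nM crosstide, 30 min, EDTA stop. IC50 from 4-parameter equation.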

For a further assay, the target named is T3, p-Akt1 in LNCaP cells (Homo sapiens, UniProt P31749).
T3 construct: SureFire assays to detect cellular p-Akt1, p-Akt2 and p-Akt3 levels in WM115 cells (Akt2/3) and LNCaP cells (Akt1); endogenous in cells; host or cells: LNCaP (ECACC 89110211)
T3 sequence (P31749 whole entry): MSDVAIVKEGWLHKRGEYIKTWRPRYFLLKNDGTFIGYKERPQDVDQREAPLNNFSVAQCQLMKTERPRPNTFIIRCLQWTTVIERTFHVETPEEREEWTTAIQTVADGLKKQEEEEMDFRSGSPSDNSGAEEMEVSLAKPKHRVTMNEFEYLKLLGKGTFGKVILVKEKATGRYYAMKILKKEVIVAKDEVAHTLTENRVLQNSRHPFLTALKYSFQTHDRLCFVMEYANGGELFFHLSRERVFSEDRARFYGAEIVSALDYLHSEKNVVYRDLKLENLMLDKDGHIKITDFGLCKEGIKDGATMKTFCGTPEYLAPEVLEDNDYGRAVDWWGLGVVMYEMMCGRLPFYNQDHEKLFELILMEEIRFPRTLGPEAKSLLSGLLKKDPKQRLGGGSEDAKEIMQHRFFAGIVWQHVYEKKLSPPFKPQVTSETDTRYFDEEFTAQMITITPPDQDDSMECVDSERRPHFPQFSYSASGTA
The assay is described as follows: Phospho-Akt cellular SureFire assay, p-Akt1 in LNCaP cells. The format is cell-based. The settings on record: read-out: Biological Assay 2 IC50 (nM) Akt1 LNCaP. In outline:
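Phospho-Thr308 Akt1 detected by AlphaScreen SureFire proximity beads in LNCaP lysates after 15 min compound treatment at 37 °C in 0.1% FBS medium, unstimulated, 0.3% DMSO. Cells plated at 5×10^4/well overnight; IC50 from a 4-parameter equation.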

For another assay, the target named is T4, p-Akt2 in WM115 cells (Homo sapiens, UniProt P31751).
T4 construct: SureFire assays to detect cellular p-Akt1, p-Akt2 and p-Akt3 levels in WM115 cells (Akt2/3) and LNCaP cells (Akt1); endogenous in cells; host or cells: WM115 (ECACC 91061232), insulin-stimulated
T4 sequence (P31751 whole entry): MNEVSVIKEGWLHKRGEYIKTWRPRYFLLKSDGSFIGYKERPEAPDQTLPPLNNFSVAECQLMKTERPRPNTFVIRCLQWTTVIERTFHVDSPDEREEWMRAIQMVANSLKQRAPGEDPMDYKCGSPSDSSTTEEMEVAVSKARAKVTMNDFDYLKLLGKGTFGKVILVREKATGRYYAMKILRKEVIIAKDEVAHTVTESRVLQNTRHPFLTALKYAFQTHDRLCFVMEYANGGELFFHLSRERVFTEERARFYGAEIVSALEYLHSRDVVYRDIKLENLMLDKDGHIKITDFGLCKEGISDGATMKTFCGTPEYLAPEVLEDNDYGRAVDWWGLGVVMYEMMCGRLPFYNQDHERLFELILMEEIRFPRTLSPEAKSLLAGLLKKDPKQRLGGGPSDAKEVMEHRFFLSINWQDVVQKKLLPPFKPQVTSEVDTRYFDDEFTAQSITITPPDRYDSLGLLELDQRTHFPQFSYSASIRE
Description: Phospho-Akt cellular SureFire assay, p-Akt2 in WM115 cells. The format is cell-based. The settings on record: insulin stimulated, read-out: Biological Assay 2 IC50 (nM) Akt2 WM115. In outline:
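Readout is a bead-proximity SureFire assay pairing a pThr308 Akt antibody with a total Akt2 antibody, lysate and beads incubated 2 h plus 2 h at room temperature in the dark. Before lysis, serum-starved WM115 cells received 100 nM insulin (10 min), then test compound (15 min, 0.3% DMSO); IC50 by 4-parameter equation.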

In the next assay the target is T5, Akt3 (Homo sapiens, UniProt Q9Y243).
T5 construct: unspecified tag, removed (detagged) (cleaved yes); purchased SignalChem and Proteros (Akt3); Merck Millipore (PDK1) 14-452 (PDK1); none given for Akt3
T5 sequence (Q9Y243 whole entry): as the sequence (Q9Y243 whole entry) above
The assay is described as follows: Akt activation assay (PDK1-mediated activation, LANCE Ultra crosstide TR-FRET), Akt3. The settings on record: read-out: Biological Assay 1 IC50 (nM) Akt3. In kind it is biochemical. The method, boiled down: as §1

The next assay has as its target T6, Akt2 (Homo sapiens, UniProt P31751).
T6 construct: unspecified tag, removed (detagged) (cleaved yes); purchased SignalChem and Proteros (Akt2); Merck Millipore (PDK1) 14-452 (PDK1); none given for Akt2
The assay is described as follows: Akt activation assay (PDK1-mediated activation, LANCE Ultra crosstide TR-FRET), Akt2. The format is biochemical. The conditions noted are these: read-out: Biological Assay 1 IC50 (nM) Akt2. The method, boiled down: as §1
In general terms: Time-resolved FRET reads energy transfer from a long-lived donor to a nearby acceptor.

Molecules are shown by their SMILES.

T2 sequence (P31749 whole entry): as the sequence (P31749 whole entry) above
T6 sequence (P31751 whole entry): as the sequence (P31751 whole entry) above

`CCOC(=O)N(C)[C@H]1CC[C@H](CC(=O)Nc2cc(-c3ccccc3)c(-c3ccc([C@]4(N)C[C@](C)(O)C4)cc3)nn2)CC1` [Example A80, Ethyl (trans-4-(2-((6-(4-(trans-1-amino-3-hydroxy-3-methylcyclobutyl)phenyl)-5-phenylpyridazin-3-yl)amino)-2-oxoethyl)cyclohexyl)(methyl)carbamate]: the IC50 on p-Akt3 in WM115 cells came out at 10 nM; on Akt1, 2400 nM; on p-Akt1 in LNCaP cells, 2400 nM; on p-Akt2 in WM115 cells it was 710 nM; on Akt3, 4 nM; at Akt2 it was 74 nM.

For `CCC(=O)N(C)[C@H]1CC[C@H](CC(=O)Nc2cc(-c3ccccc3)c(-c3ccc(C4(N)CC4)cc3)cn2)CC1` [Example A81, N-(trans-4-(2-((5-(4-(1-aminocyclopropyl)phenyl)-4-phenylpyridin-2-yl)amino)-2-oxoethyl)cyclohexyl)-N-methylpropionamide], the IC50 at p-Akt3 in WM115 cells is 390 nM; at Akt1 it was more than 30000 nM; on p-Akt1 in LNCaP cells, more than 30000 nM; on p-Akt2 in WM115 cells, 9100 nM; at Akt3, 69 nM; on Akt2 it was 1200 nM.

For `C[C@]1(O)C[C@@](N)(c2ccc(-c3cnc(NC(=O)C[C@H]4CC[C@H](N5CCCC5=O)CC4)cc3-c3ccccc3)cc2)C1` [Example A82, N-(5-(4-(trans-1-amino-3-hydroxy-3-methylcyclobutyl)phenyl)-4-phenylpyridin-2-yl)-2-(trans-4-(2-oxopyrrolidin-1-yl)cyclohexyl)acetamide], the IC50 at p-Akt3 in WM115 cells was found to be 14 nM; at Akt1, 3100 nM; at p-Akt1 in LNCaP cells, 1800 nM; at p-Akt2 in WM115 cells it was 460 nM; at Akt3, 7 nM; on Akt2, 91 nM.

For the compound `NC1(c2ccc(-c3cnc(NC(=O)C[C@H]4CC[C@H](N5CCCC5=O)CC4)cc3-c3ccccc3)cc2)CC1` [Example A83, N-(5-(4-(1-aminocyclopropyl)phenyl)-4-phenylpyridin-2-yl)-2-(trans-4-(2-oxopyrrolidin-1-yl)cyclohexyl)acetamide], the IC50 at p-Akt3 in WM115 cells is 220 nM; at Akt1, more than 30000 nM; on p-Akt1 in LNCaP cells, more than 20000 nM; at p-Akt2 in WM115 cells, 3400 nM; at Akt3 it was 33 nM; on Akt2, 500 nM.

As for `CCC(=O)N(C)[C@H]1CC[C@H](CC(=O)Nc2cc(-c3ccccc3)c(-c3ccc(C(C)(C)N)cc3)nn2)CC1` [Example A84, N-(trans-4-(2-((6-(4-(2-aminopropan-2-yl)phenyl)-5-phenylpyridazin-3-yl)amino)-2-oxoethyl)cyclohexyl)-N-methylpropionamide], the IC50 at p-Akt3 in WM115 cells was 150 nM; at Akt1 it was more than 30000 nM; at p-Akt1 in LNCaP cells, more than 30000 nM; at p-Akt2 in WM115 cells it was 7100 nM; at Akt3, 51 nM; at Akt2, 4000 nM.

On to `CC(C)C(=O)N(C)[C@H]1CC[C@H](CC(=O)Nc2cc(-c3ccccc3)c(-c3ccc(C(C)(C)N)cc3)nn2)CC1` [Example A85, N-(trans-4-(2-((6-(4-(2-aminopropan-2-yl)phenyl)-5-phenylpyridazin-3-yl)amino)-2-oxoethyl)cyclohexyl)-N-methylisobutyramide], for which the IC50 was 270 nM on p-Akt3 in WM115 cells; more than 30000 nM on Akt1; more than 20000 nM on p-Akt1 in LNCaP cells; 8800 nM at p-Akt2 in WM115 cells; 74 nM at Akt3; 3400 nM on Akt2.

On to `CN(C(=O)C1CC1)[C@H]1CC[C@H](CC(=O)Nc2cc(-c3ccccc3)c(-c3ccc(C(C)(C)N)cc3)nn2)CC1` [Example A86, N-(trans-4-(2-((6-(4-(2-aminopropan-2-yl)phenyl)-5-phenylpyridazin-3-yl)amino)-2-oxoethyl)cyclohexyl)-N-methylcyclopropanecarboxamide], for which the IC50 was 170 nM at p-Akt3 in WM115 cells; more than 30000 nM on Akt1; more than 21000 nM on p-Akt1 in LNCaP cells; 8300 nM on p-Akt2 in WM115 cells; 45 nM on Akt3; 3900 nM at Akt2.

On to `CN(C(=O)C1CCC1)[C@H]1CC[C@H](CC(=O)Nc2cc(-c3ccccc3)c(-c3ccc(C(C)(C)N)cc3)nn2)CC1` [Example A87, N-(trans-4-(2-((6-(4-(2-aminopropan-2-yl)phenyl)-5-phenylpyridazin-3-yl)amino)-2-oxoethyl)cyclohexyl)-N-methylcyclobutanecarboxamide], for which the 50% inhibitory concentration (IC50) at p-Akt3 in WM115 cells is 400 nM; at Akt1, more than 30000 nM; at p-Akt1 in LNCaP cells, more than 23000 nM; at p-Akt2 in WM115 cells it was 12000 nM; on Akt3, 99 nM; on Akt2, 5500 nM.

For the compound `COC(=O)N(C)[C@H]1CC[C@H](CC(=O)Nc2cc(-c3ccccn3)c(-c3ccc(C4(N)CC4)cc3)cn2)CC1` [Example A88, Methyl ((1r,4r)-4-(2-((5′-(4-(1-aminocyclopropyl)phenyl)-[2,4′-bipyridin]-2′-yl)amino)-2-oxoethyl)cyclohexyl)(methyl)carbamate], the IC50 at p-Akt3 in WM115 cells is 1600 nM; at Akt1, more than 30000 nM; at p-Akt1 in LNCaP cells, more than 30000 nM; at p-Akt2 in WM115 cells it was more than 30000 nM; on Akt3, 1400 nM; at Akt2, more than 27000 nM.

For the compound `CCC(=O)N(C)[C@H]1CC[C@H](CC(=O)Nc2cnc(-c3ccc(C4(N)CC4)c(F)c3)c(-c3ccccc3)c2)CC1` [Example A89, N-(trans-4-(2-((6-(4-(1-aminocyclopropyl)-3-fluorophenyl)-5-phenylpyridin-3-yl)amino)-2-oxoethyl)cyclohexyl)-N-methylpropionamide], the IC50 is 130 nM at p-Akt3 in WM115 cells; more than 30000 nM at Akt1; more than 30000 nM at p-Akt1 in LNCaP cells; 8300 nM on p-Akt2 in WM115 cells; 80 nM at Akt3; 4000 nM on Akt2.

For the compound `CCC(=O)N(C)[C@H]1CC[C@H](CC(=O)Nc2cc(-c3ccccc3)c(-c3ccc(C4(N)CC4)cc3)nn2)CC1` [Example A91, N-(trans-4-(2-((6-(4-(1-aminocyclopropyl)phenyl)-5-phenylpyridazin-3-yl)amino)-2-oxoethyl)cyclohexyl)-N-methylpropionamide], the IC50 at p-Akt3 in WM115 cells is 90 nM; on Akt1, more than 30000 nM; on p-Akt1 in LNCaP cells, more than 30000 nM; on p-Akt2 in WM115 cells, 2000 nM; at Akt3, 24 nM; on Akt2, 490 nM.

With `CC(C)C(=O)N(C)[C@H]1CC[C@H](CC(=O)Nc2cc(-c3ccccc3)c(-c3ccc(C4(N)CC4)cc3)nn2)CC1` [Example A92, N-(trans-4-(2-((6-(4-(1-aminocyclopropyl)phenyl)-5-phenylpyridazin-3-yl)amino)-2-oxoethyl)cyclohexyl)-N-methylisobutyramide], the IC50 is 140 nM on p-Akt3 in WM115 cells; more than 13000 nM at Akt1; more than 30000 nM at p-Akt1 in LNCaP cells; 2200 nM on p-Akt2 in WM115 cells; 29 nM at Akt3; 1200 nM at Akt2.

`CN(C(=O)C1CCC1)[C@H]1CC[C@H](CC(=O)Nc2cc(-c3ccccc3)c(-c3ccc(C4(N)CC4)cc3)nn2)CC1` [Example A93, N-(trans-4-(2-((6-(4-(1-aminocyclopropyl)phenyl)-5-phenylpyridazin-3-yl)amino)-2-oxoethyl)cyclohexyl)-N-methylcyclobutanecarboxamide]: the IC50 at p-Akt3 in WM115 cells was 200 nM; at Akt1 it was more than 19000 nM; on p-Akt1 in LNCaP cells, more than 30000 nM; on p-Akt2 in WM115 cells, 2600 nM; at Akt3, 37 nM; at Akt2, 1400 nM.
